One test concerns A427 cells. Briefly: Cytotoxicity assay in A427 cell line (resazurin). It counts as cell-based. The following applies: Homo sapiens, A-427, A427 lung epithelial cell line, 72 hr incubation, inhibition of proliferation. Here is the method:
A427 (HTB-53; ATCC), a lung epithelial cell line, was seeded in medium (MEM, 41090101; Gibco) at a cell count of 1500 cells per 100 μL per well in a 96 well edge plate (167425; ThermoFisher). Cells were allowed to grow at 37° C. for 24 hr in 5% CO2 environment (culture conditions) in a Nuaire incubator (humidified). Serially diluted test compounds (100 μL) within the desired testing concentration ranges were added to the culture plate and the cells were further incubated in culture conditions for 72 hr. The experiment was terminated at the designated incubation time by replacing the medium with 100 μL of 1 mM of resazurin (R7017; Sigma) prepared in culture medium, and the plates were further incubated in culture conditions for 4-6 hr. Fluorescence was recorded using a multimodal plate reader (Biotek Synergy Neo) at an excitation wavelength of 535 nm and emission wavelength of 590 nm to obtain relative fluorescence units. Data were analysed as follows: the background fluorescence (blank containing only medium) value was subtracted from each reading and normalized with the vehicle control (DMSO treated cells) to obtain percent survival/proliferation. Percent survival was subtracted from 100 to get the percent inhibition of proliferation which was used to calculate IC50 values. Potency of compounds in other cell lines (such as A549, As-Pc-1, Panc 10.05, A172, U-87 MG) may be determined in an analogous manner.

A further test concerns the target T1, WEE1 kinase enzyme (Homo sapiens, UniProt P30291).
T1 construct: purchased Invitrogen, Life Technologies PR7373A
As to the kind of experiment: WEE1 IC50 determination, LanthaScreen Terbium Labeled TR-FRET kinase assay. It counts as biochemical. Conditions: WEE1 enzyme 1 nM, ATP 10 μM, 1 h. On the procedure:
IC50 values of compounds against WEE1 kinase enzyme were determined by LanthaScreen™ Terbium Labeled TR-FRET assay. Kinase assays were performed in 1× kinase buffer (#PV6135, Invitrogen, Life Technologies Grand Island, N.Y.) where total reaction volume was 10 μL in low-volume 384-well plates (#4511, Corning). Serially diluted compounds (3-fold) were incubated with WEE1 Enzyme (1 nM) (#PR7373A, Invitrogen, Life Technologies, Grand Island, N.Y.) for 10 min, and a mixture of ATP (10 μM) (#A1852, Sigma, St. Louis, Mo.) and fluorescent-PolyGT substrate (200 nM) (#PV3610, Invitrogen, Life Technologies, Grand Island, N.Y.) was added and incubated in the dark at room temperature for 1 h. After 1 h, a 10 μL stop solution containing terbium labeled antibody (4 nM) (#PV3529, Invitrogen, Life Technologies Grand Island, N.Y.) and EDTA (#E5134, Sigma, St. Louis, Mo.) (20 mM) in TR-FRET dilution buffer (#PV3574, Invitrogen, Life Technologies, Grand Island, N.Y.) was added. Readings were taken in a Synergy Neo Plate reader (BioTek, Winooski, Vt.) at single excitation of 340 nm and dual emission at 495 nm and 520 nm respectively.
The % activity of test samples was calculated as (Sample−Min)*100/(Max−Min). [Max: DMSO control, complete reaction with enzyme & DMSO and Min: No enzyme & DMSO]. Percent inhibition (100−% activity) was fitted to the “four-parameter logistic model” in XLfit for determination of IC50 values.

The test system of test [1] is phospho-CDC2 (Tyr15) in A427 cells. Briefly: Phospho-CDC2 (Tyr15) sandwich ELISA in A427 cells. It counts as cell-based. Conditions: Homo sapiens, A-427, PathScan Phospho-CDC2 (Tyr15) ELISA, specified time (e.g., 24 hr). On the procedure:
Changes in the levels of phospho-CDC2 following treatment of cells with test compounds were assessed by enzyme-linked immunosorbent assay (ELISA). A427 cells were plated in 6-well plates and cultured for 24 hr to approximately 80-90% confluency. Medium was replaced, and the cells were treated with the vehicle control or the test compound at several different concentrations. After incubation of treated cells in cell culture conditions for a specified time (e.g., 24 hr), cells were rinsed with ice-cold PBS and lysed in 1× cell lysis buffer containing protease inhibitors and phosphatase inhibitors. The cells were scraped from the plate with a cell scraper after a brief incubation on ice and transferred to a centrifuge tube, and then subjected to three freeze-thaw cycles in liquid nitrogen and a 37° C. water bath for further lysis. The lysates were centrifuged to pellet cell debris (using, for example, a 10 min centrifugation of 2000×g at 4° C.) and the supernatants transferred to fresh tubes on ice. The protein concentrations of the samples were estimated by the Bradford method or equivalent. The ELISA was carried out with the PathScan® Phospho-CDC2 (Tyr15) Sandwich ELISA Kit (Cat. #7176, Cell Signaling Technology, Danvers, Mass.) according to the manufacturer's instructions.

T1 sequence (P30291 whole entry): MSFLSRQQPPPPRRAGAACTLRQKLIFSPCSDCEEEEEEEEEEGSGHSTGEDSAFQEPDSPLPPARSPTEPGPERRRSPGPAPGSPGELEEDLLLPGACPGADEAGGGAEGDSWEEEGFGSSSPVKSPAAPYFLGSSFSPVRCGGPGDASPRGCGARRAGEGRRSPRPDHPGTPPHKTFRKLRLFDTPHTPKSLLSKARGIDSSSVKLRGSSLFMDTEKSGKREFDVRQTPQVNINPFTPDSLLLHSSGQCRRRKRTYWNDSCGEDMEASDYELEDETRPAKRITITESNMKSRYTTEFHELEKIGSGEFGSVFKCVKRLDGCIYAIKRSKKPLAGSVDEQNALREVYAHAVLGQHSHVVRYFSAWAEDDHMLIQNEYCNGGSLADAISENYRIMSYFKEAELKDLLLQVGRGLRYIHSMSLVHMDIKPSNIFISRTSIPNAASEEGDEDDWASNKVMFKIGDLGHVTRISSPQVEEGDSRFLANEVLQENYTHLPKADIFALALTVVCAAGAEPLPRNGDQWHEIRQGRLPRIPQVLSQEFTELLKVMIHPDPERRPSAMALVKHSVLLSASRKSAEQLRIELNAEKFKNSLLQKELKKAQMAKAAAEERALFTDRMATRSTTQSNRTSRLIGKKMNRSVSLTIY

Regarding `CC(C)n1cc(-n2c3nc(Nc4ccc5c(c4)CCNC5)ncc3c(=O)n2C(C)C)cn1` [Compound 1.1, 2-isopropyl-1-(1-isopropyl-1H-pyrazol-4-yl)-6-((1,2,3,4-tetrahydroisoquinolin-6-yl)amino)-1,2-dihydro-3H-pyrazolo[3,4-d]pyrimidin-3-one], the half-inhibitory concentration (IC50) in the test on A427 cells was over 30000 nM; at WEE1 kinase enzyme, 107 nM.

For the compound `COCC(C)(C)c1cccc(-n2c3nc(Nc4ccc5c(c4)CNCC5)ncc3c(=O)n2C(C)C)n1` [Compound 1.2, 2-isopropyl-1-(6-(1-methoxy-2-methylpropan-2-yl)pyridin-2-yl)-6-((1,2,3,4-tetrahydroisoquinolin-7-yl)amino)-1,2-dihydro-3H-pyrazolo[3,4-d]pyrimidin-3-one], the values for the IC50 with A427 cells and on WEE1 kinase enzyme were 295 nM and 4 nM, respectively.

As for `CC(C)n1c(=O)c2cnc(Nc3ccc4c(c3)CCNC4)nc2n1-c1cccc(C(=O)N(C)C)c1` [Compound 1.3, 3-(2-isopropyl-3-oxo-6-((1,2,3,4-tetrahydroisoquinolin-6-yl)amino)-2,3-dihydro-1H-pyrazolo[3,4-d]pyrimidin-1-yl)-N,N-dimethylbenzamide], the IC50 in the test on A427 cells stood at 8160 nM; on WEE1 kinase enzyme, 2 nM.

On to `CC(C)n1c(=O)c2cnc(Nc3ccc4c(c3)CNCC4)nc2n1-c1cccc(C(=O)N(C)C)c1` [Compound 1.4, 3-(2-isopropyl-3-oxo-6-((1,2,3,4-tetrahydroisoquinolin-7-yl)amino)-2,3-dihydro-1H-pyrazolo[3,4-d]pyrimidin-1-yl)-N,N-dimethylbenzamide], for which the IC50 in the test on A427 cells came out at 3510 nM; at WEE1 kinase enzyme it was 3 nM.

For the compound `CC(C)N1CCc2cc(Nc3ncc4c(=O)n(C(C)C)n(-c5ccnc(C(C)(C)C)c5)c4n3)ccc2C1` [Compound 1.5, 1-(2-(tert-butyl)pyridin-4-yl)-2-isopropyl-6-((2-isopropyl-1,2,3,4-tetrahydroisoquinolin-6-yl)amino)-1,2-dihydro-3H-pyrazolo[3,4-d]pyrimidin-3-one], the IC50 in the test with A427 cells was found to be 2070 nM; at WEE1 kinase enzyme, 21 nM.

For the compound `CC(C)n1c(=O)c2cnc(Nc3ccc4c(c3)CNCC4)nc2n1-c1ccc(C#N)cc1` [Compound 1.85, 4-(2-isopropyl-3-oxo-6-(1,2,3,4-tetrahydroisoquinolin-7-ylamino)-2,3-dihydro-1H-pyrazolo[3,4-d]pyrimidin-1-yl)benzonitrile], the half-inhibitory concentration (IC50) turned out to be 1860 nM in the test on A427 cells, 5 nM at WEE1 kinase enzyme and 278 nM in test [1].

`CC(C)n1c(=O)c2cnc(Nc3ccc4c(c3)CCNC4)nc2n1-c1ccc(C#N)cc1` [Compound 1.86, 4-(2-isopropyl-3-oxo-6-(1,2,3,4-tetrahydroisoquinolin-6-ylamino)-2,3-dihydro-1H-pyrazolo[3,4-d]pyrimidin-1-yl)benzonitrile]: the 50% inhibitory concentration (IC50) was found to be 1070 nM with A427 cells and 8 nM at WEE1 kinase enzyme.

Consider `CC(C)n1c(=O)c2cnc(Nc3ccc4c(c3)CCN(CCCN)C4)nc2n1-c1ccnc(C(C)(C)C)c1` [Compound 1.87, 2,2,2-trifluoroacetaldehyde compound with 6-((2-(3-aminopropyl)-1,2,3,4-tetrahydroisoquinolin-6-yl)amino)-1-(2-(tert-butyl)pyridin-4-yl)-2-isopropyl-1,2-dihydro-3H-pyrazolo[3,4-d]pyrimidin-3-one], for which, at WEE1 kinase enzyme, the 50% inhibitory concentration (IC50) was determined as 4 nM.

The values are drawn from US20220169646A1, “HETEROCYCLIC COMPOUNDS AND USES THEREOF” (Nuvation Bio Inc., priority 2019, published 2022).
